Laboratory results taken from paper PMC6694100, “The complex of ferric-enterobactin with its transporter from Pseudomonas aeruginosa suggests a two-site model” (Nature Communications, 2019).
Where “and” joins values, the source holds several entries; their conditions need not be identical. Equal entries are not always repeated. Entries after “also recorded” stand apart in the source; their conditions may differ. Where two headings read alike, the source gives them in different places.

How the values were obtained:
[1] = molecular target: T1, PfeA wild-type (Pseudomonas aeruginosa, UniProt Q05098); assay: isothermal titration calorimetry, PfeA wild-type; format: binding; conditions: ITC reverse titration (PfeA into Fe^3+-enterobactin), estimate
T1 construct: His7 tag with TEV protease site (N, cleaved yes); made in house; host or cells: E. coli C43 (DE3)
T1 sequence (Q05098 26-746): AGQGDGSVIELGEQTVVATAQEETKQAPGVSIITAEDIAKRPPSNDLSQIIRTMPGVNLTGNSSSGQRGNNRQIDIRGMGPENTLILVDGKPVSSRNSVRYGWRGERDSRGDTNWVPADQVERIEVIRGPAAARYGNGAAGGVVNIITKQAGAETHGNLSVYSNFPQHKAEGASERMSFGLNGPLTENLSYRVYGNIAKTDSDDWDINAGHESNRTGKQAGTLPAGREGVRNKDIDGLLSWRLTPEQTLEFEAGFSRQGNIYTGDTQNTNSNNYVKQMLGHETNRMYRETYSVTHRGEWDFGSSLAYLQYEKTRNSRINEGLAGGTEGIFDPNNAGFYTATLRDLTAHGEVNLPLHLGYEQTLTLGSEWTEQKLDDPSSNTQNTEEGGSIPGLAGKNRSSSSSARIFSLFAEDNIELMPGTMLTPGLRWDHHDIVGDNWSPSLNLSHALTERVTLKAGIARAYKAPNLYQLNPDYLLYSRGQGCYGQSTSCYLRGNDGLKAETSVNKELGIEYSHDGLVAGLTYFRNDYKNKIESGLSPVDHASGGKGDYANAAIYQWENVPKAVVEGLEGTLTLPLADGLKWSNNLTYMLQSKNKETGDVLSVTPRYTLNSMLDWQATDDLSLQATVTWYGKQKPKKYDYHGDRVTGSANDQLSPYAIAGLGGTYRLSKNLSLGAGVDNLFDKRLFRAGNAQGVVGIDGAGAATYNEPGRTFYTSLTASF
Description: (§1) The sites have different affinities for the ligand, one with high affinity and highly favourable enthalpy and the second with lower affinity and unfavourable enthalpy. Although the biphasic nature of the isotherm was reproducible, the numerical values varied. For K1, the binding constant was 20 to 100 nM; for K2 […]. […] The weaker binding at the […] site is consistent with the higher B-factor of the Fe^3+-enterobactin molecule observed in the complex crystal structures.
(§2) Affinities of PfeA wild-type and mutants for Fe^3+-enterobactin were measured by isothermal titration calorimetry using a VP-ITC instrument (GE Healthcare) at 25 °C. Titrations were performed using 57 × 5 μl injections of Fe^3+-enterobactin (70–55 μM) into 10 μM protein. The heats of dilution measured from injection of the ligands into the buffer were subtracted, and titration curves were fitted using AFFINImeter software with a two-site binding model. Concentrations of Fe^3+-enterobactin solutions were verified with UV/vis spectrophotometry using a published molar extinction coefficient of ε495 = 5600 M^−1 cm^−1. […] Reverse titration has been also performed (PfeA into Fe^3+-enterobactin), but data suffer from high heats of dilution in the beginning of the blank titration of PfeA into the buffer giving estimates of K1 = 95 nM and K2 = 4.5 μM for the wild-type.

[2] = molecular target: T2, PfeA G324V mutant (Pseudomonas aeruginosa, UniProt Q05098, G349V); assay: isothermal titration calorimetry, PfeA G324V; format: binding
T2 construct: His7 tag with TEV protease site (N, cleaved yes); made in house; host or cells: E. coli C43 (DE3)
T2 sequence (Q05098 26-746 G349V): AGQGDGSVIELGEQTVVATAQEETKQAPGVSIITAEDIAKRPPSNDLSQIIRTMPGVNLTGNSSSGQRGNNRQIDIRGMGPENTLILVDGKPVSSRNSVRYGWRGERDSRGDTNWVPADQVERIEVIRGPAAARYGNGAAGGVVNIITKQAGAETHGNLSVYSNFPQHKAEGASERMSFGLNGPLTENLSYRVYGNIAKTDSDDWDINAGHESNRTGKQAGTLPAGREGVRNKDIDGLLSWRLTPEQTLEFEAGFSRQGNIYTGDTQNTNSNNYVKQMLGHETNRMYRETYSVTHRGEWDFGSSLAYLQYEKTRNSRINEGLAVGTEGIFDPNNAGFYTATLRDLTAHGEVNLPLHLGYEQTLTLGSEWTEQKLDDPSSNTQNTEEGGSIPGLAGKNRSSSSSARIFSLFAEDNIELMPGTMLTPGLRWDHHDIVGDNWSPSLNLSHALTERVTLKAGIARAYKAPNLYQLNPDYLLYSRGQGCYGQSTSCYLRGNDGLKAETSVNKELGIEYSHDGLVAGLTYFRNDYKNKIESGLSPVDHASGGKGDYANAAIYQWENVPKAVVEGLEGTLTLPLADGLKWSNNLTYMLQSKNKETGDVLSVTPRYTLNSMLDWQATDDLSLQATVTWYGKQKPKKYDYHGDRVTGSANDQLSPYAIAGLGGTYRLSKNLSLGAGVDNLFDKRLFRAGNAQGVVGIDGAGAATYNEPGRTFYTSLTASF
Description: as §1, §2

[3] = test system: ∆pfeA(pMMBpfeAR480AQ482A) cells (double-mutant PfeA); assay: 55Fe-enterobactin binding and uptake assay, ∆pfeA(pMMBpfeAR480AQ482A); format: cell-based, Pseudomonas aeruginosa; conditions: for 55Fe count, Comptage / 55Fe-enterobactin bound/taken up: replicates, Figure 6b-c, listed as 55Fe-enterobactin
Description: (§3) Fig. 6 Effects of PfeA mutation in vivo. a Analysis of changes in the transcription of pfeA gene. PAO1 strain, its corresponding deletion mutant ∆pfeA and deletion mutants carrying the expression plasmid of PfeA wild-type (∆pfeA(pMMBpfeA) or the R480A-Q482A mutant (∆pfeA(pMMBpfeAR480AQ482A)) were grown in CAA medium supplemented with 10 µM enterobactin. The data were normalised relative to the reference gene uvrD, and are representative of three independent experiments performed in triplicate (n = 3). The results are given as a ratio between the values obtained for ∆pfeA, ∆pfeA(pMMBpfeA) and ∆pfeA(pMMBpfeAR480AQ482A) over those obtained for the PAO1 strain. b ^55Fe-enterobactin binding at the bacterial surface. Cells were grown as in panel a, and were incubated for 15 min with 200 µM CCCP before initiation of transport assays by the addition of 500 nM ^55Fe-enterobactin. After 30 min incubation, the radioactivity accumulated in the bacteria was counted. The results are expressed as pmol of ^55Fe-enterobactin bound per ml of cells at an OD600 of 1. The experiments have been repeated three times. c ^55Fe-enterobactin binding and uptake. Cells were grown as in panel a, and were incubated with or without 200 µM CCCP before initiation of transport assays by the addition of 500 nM ^55Fe-enterobactin. After 30 min incubations, the radioactivity accumulated in the bacteria was counted. The results are expressed as pmol of ^55Fe-enterobactin bound and transported per ml of cells at an OD600 of 1. The experiments have been repeated three times
(§4) The complex was prepared at ^55Fe concentrations of 50 μM, with a siderophore:iron (mol:mol) ratio of 20:1. P. aeruginosa strains were first grown overnight at 30 °C in LB broth, and were then washed, resuspended and cultured overnight at 30 °C in iron-deficient CAA medium (casamino acid medium, composition: 5 g.l^−1 low-iron CAA (Difco), 1.46 g.l^−1 K2HPO4 3H2O, 0.25 g.l^−1 MgSO4 7H2O) and in the presence of 10 µM enterobactin to induce the expression of PfeA. CAA is a highly iron-restricted medium with iron concentrations of 20 nM[59]. Afterwards bacteria were washed with 50 mM Tris-HCl pH 8.0, and diluted to an OD600 of 1. Cells solutions were divided in two, one batch being treated with 200 μM CCCP. This compound collapses the proton-motive force across the bacterial cell membranes, inhibiting TonB-dependent iron uptake. Binding and transport assays were initiated by adding 500 nM ^55Fe-enterobactin to the bacterial solutions treated or not with CCCP. After 30 min of incubations, cells were centrifuged, and the radioactivity associated to the bacteria was monitored in the cell pellets. For the cells treated with CCCP, the radioactivity in the cell pellets corresponds to the binding of ^55Fe-enterobactin to P. aeruginosa cell surface, since no uptake occurs. In the absence of CCCP, the radioactivity associated to the cells corresponds to ^55Fe-enterobactin binding to the cell surface and the uptake into the bacteria.

[4] = test system: ∆pfeA(pMMBpfeA) cells (native PfeA); assay: 55Fe-enterobactin binding and uptake assay, ∆pfeA(pMMBpfeA); format: cell-based, Pseudomonas aeruginosa; conditions: for Comptage (dpm): replicate counts; for Comptage (dpm) / 55Fe incorporated, pmol/ml/DO600: Supplementary Fig 10, listed as 55Fe-enterobactin; for 55Fe incorporated, pmol/ml/DO600: replicates
Description: as §3, §4

[5] = test system: wild-type PAO1 strain; assay: 55Fe-enterobactin binding and uptake assay, PAO1; format: cell-based, Pseudomonas aeruginosa; conditions: replicates, Figure 6b-c, listed as 55Fe-enterobactin
Description: as §3
as §4, with “This compound collapses the proton-motive force across the bacterial cell membranes, inhibiting TonB-dependent iron uptake. Binding and transport assays were initiated by adding 500 nM ^55Fe-enterobactin to the bacterial solutions treated or not with CCCP.” left out

[6] = molecular target: T3, PfeA Q482A mutant (Pseudomonas aeruginosa, UniProt Q05098, Q507A); assay: isothermal titration calorimetry, PfeA Q482A; format: binding
T3 construct: His7 tag with TEV protease site (N, cleaved yes); made in house; host or cells: E. coli C43 (DE3)
T3 sequence (Q05098 26-746 Q507A): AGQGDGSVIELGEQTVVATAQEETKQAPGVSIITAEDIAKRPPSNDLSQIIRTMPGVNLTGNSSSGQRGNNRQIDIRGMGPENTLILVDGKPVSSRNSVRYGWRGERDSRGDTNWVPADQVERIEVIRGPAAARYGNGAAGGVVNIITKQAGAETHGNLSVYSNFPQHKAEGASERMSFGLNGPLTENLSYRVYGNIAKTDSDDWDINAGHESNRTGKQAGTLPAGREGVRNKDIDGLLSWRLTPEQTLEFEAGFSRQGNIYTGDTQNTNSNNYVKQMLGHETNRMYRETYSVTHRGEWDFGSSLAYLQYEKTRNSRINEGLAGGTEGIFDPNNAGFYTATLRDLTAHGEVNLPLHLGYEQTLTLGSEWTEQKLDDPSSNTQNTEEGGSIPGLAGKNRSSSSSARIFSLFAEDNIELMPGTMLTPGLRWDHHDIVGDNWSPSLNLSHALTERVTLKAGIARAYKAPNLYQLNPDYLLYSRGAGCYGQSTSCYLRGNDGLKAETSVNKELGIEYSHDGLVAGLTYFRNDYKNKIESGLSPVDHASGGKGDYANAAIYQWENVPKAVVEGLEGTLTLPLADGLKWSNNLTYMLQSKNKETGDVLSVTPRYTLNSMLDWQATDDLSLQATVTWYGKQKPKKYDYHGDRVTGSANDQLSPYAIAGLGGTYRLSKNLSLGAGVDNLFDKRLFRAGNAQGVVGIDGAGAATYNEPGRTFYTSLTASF
Description: as §1, §2

[7] = molecular target: T4, PfeA R480A-Q482A double mutant (Pseudomonas aeruginosa, UniProt Q05098, Q507A/R505A); assay: coelution on S200 size-exclusion column, PfeA R480A-Q482A; format: binding
T4 construct: His7 tag with TEV protease site (N, cleaved yes); made in house; host or cells: E. coli C43 (DE3)
T4 sequence (Q05098 26-746 R505A/Q507A): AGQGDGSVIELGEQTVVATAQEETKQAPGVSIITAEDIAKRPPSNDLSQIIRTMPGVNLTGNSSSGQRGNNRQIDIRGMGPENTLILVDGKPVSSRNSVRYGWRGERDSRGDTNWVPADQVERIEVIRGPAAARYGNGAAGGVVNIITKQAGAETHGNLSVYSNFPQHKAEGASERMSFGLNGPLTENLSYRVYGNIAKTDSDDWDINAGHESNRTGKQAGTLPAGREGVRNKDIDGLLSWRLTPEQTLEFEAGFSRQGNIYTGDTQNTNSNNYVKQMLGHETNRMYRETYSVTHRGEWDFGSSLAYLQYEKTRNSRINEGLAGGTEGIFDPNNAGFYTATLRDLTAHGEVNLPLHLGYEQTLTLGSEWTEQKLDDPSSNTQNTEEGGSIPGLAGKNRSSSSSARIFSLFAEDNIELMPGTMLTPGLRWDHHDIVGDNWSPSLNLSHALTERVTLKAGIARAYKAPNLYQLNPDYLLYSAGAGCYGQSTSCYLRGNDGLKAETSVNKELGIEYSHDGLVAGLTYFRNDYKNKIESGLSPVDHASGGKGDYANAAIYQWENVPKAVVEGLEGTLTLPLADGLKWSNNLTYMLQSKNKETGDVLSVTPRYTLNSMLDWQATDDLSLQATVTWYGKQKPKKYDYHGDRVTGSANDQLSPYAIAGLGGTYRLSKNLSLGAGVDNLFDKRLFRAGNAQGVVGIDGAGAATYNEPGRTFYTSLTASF
Description: Proteins were incubated with the Fe^3+-siderophore before being loaded on a S200 size-exclusion column.

[8] = cells not treated with CCCP, 500 nM ^55Fe-enterobactin, 30 min
[9] = ∆pfeA (pMMBpfeAR480AQ482A) + CCCP
[10] = ∆pfeA (pMMBpfeAR480AQ482A), no CCCP

In the case of `O=C(N[C@H]1COC(=O)[C@@H](NC(=O)c2cccc([O-])c2[O-])COC(=O)[C@@H](NC(=O)c2cccc([O-])c2[O-])COC1=O)c1cccc([O-])c1[O-].[Fe+3]` [Fe^3+-enterobactin], the Kd ([1]; read-out: K1, reverse titration) is reported as 0.095 µM, the Kd ([1]; read-out: K2, reverse titration) is reported as 4.5 µM and the “binding by ITC” value [2] is reported as “no binding was detected; also recorded: did not show any detectable binding”. For the same compound, the “^55Fe-enterobactin binding and uptake” value [3, 8] was “inactive”, the “55Fe count, Comptage” value [3, 9] was 1611 dpm and 1344 dpm and 1594 dpm and the 55Fe-enterobactin bound/taken up [3, 9] was 20.669 pmol/ml/DO600 and 17.2434 pmol/ml/DO600 and 20.4509 pmol/ml/DO600. For the same compound, the “55Fe count, Comptage” value [3, 10] was 2941 dpm and 2752 dpm and 2956 dpm, the 55Fe-enterobactin bound/taken up [3, 10] was 37.7328 pmol/ml/DO600 and 35.3079 pmol/ml/DO600 and 37.9252 pmol/ml/DO600 and the “^55Fe-siderophore binding at the bacterial surface” value ([4]; CCCP treated cells (200 µM), 500 nM ^55Fe-enterobactin, 30 min, compared with wild-type PAO1) was “much higher levels of binding”. For the same compound, the “^55Fe-enterobactin binding and uptake” value [4, 8] was “less efficient”, the “Comptage (dpm)” value ([4]; ∆pfeA (pMMBpfeA) (no CCCP)) was 9474 dpm and 9114 dpm and 9574 dpm and the “55Fe incorporated, pmol/ml/DO600” value ([4]; ∆pfeA (pMMBpfeA) (no CCCP)) was 121.551 pmol/ml/DO600 and 116.932 pmol/ml/DO600 and 122.834 pmol/ml/DO600. For the same compound, the “Comptage (dpm)” value ([4]; ∆pfeA (pMMBpfeA) + CCCP) was 6090 dpm and 6603 dpm and 5856 dpm, the “55Fe incorporated, pmol/ml/DO600” value ([4]; ∆pfeA (pMMBpfeA) + CCCP) was 78.1342 pmol/ml/DO600 and 84.716 pmol/ml/DO600 and 75.132 pmol/ml/DO600 and the “55Fe count, Comptage” value ([5]; PAO1 + CCCP) was 1670 dpm and 1638 dpm and 1498 dpm. The 55Fe-enterobactin bound/taken up ([5]; PAO1 + CCCP) was 21.426 pmol/ml/DO600 and 21.0154 pmol/ml/DO600 and 19.2192 pmol/ml/DO600, the “55Fe count, Comptage” value ([5]; PAO1, no CCCP) was 14331 dpm and 14149 dpm and 16177 dpm and the 55Fe-enterobactin bound/taken up ([5]; PAO1, no CCCP) was 183.866 pmol/ml/DO600 and 181.531 pmol/ml/DO600 and 207.55 pmol/ml/DO600. For the same compound, the “binding by ITC” value [6] was “biphasic isotherms, but with much reduced heat output and smaller K1 values; also recorded: weakened (but detectable) binding” and the “coelution with protein on size-exclusion column” value [7] was “does not coelute”.
